Reference: patent US9725449B2, “Tricyclic compounds as anticancer agents” (BRISTOL-MYERS SQUIBB COMPANY, priority 2015, dated 2017)

Target: BRD4 (Homo sapiens, UniProt O60885)
Assay: Time resolved fluorescence resonance energy transfer (TR-FRET) binding assay, bromodomain BRD4
Conditions: one of the FRET assays described; read-out: FRET BRD4 IC50

Row | SMILES | IC50 [nM]
1 | Cc1nnn(C)c1-c1cnc2c3ccc(N4CCC(S(C)(=O)=O)CC4)nc3n([C@H](c3ccccc3)C3CCOCC3)c2c1 [Example 192, 5-(Dimethyl-1H-1,2,3-triazol-5-yl)-11-(4-methanesulfonylpiperidin-1-yl)-8-[(S)-oxan-4-yl(phenyl)methyl]-3,8,10-triazatricyclo[7.4.0.0^2,^7]trideca-1(9),2(7),3,5,10,12-hexaene] | < 1
2 | Cc1nnn(C)c1-c1cnc2c3cnc(Cl)cc3n(C(c3ncccc3F)C3CCOCC3)c2c1 (stereo not shown) [Example 316] | < 10
3 | CSc1ccc2c3ncc(-c4c(C)nnn4C)cc3n([C@H](c3ccccc3)C3CCOCC3)c2n1 [Example 194, 5-(Dimethyl-1H-1,2,3-triazol-5-yl)-11-(methylsulfanyl)-8-[(S)-oxan-4-yl(phenyl)methyl]-3,8,10-triazatricyclo[7.4.0.0^2,^7]trideca-1(9),2(7),3,5,10,12-hexaene] | < 10
4 | Cc1nnn(C)c1-c1cnc2c3cncc(Cl)c3n([C@H](c3ccccc3)C3CCOCC3)c2c1 [Example 34, 10-Chloro-5-(dimethyl-1H-1,2,3-triazol-5-yl)-8-[(S)-oxan-4-yl(phenyl)methyl]-3,8,12-triazatricyclo[7.4.0.0^2,^7]trideca-1(13),2(7),3,5,9,11-hexaene] | < 10
5 | COc1ccc2c3ncc(-c4c(C)nnn4C)cc3n([C@H](c3ccccc3)C3CCOCC3)c2n1 [Example 12, 5-(Dimethyl-1H-1,2,3-triazol-5-yl)-11-methoxy-8-[(S)-oxan-4-yl(phenyl)methyl]-3,8,10-triazatricyclo[7.4.0.0^2,^7]trideca-1(13),2(7),3,5,9,11-hexaene] | < 10
6 | COc1ncc(C(=O)N2CC(F)C2)c2c1c1ncc(-c3c(C)nnn3C)cc1n2[C@H](c1ccccc1)C1CCOCC1 [Example 137, 5-(dimethyl-1H-1,2,3-triazol-5-yl)-10-(3-fluoroazetidine-1-carbonyl)-13-methoxy-8-[(S)-oxan-4-yl(phenyl)methyl]-3,8,12-triazatricyclo[7.4.0.0^2,^7]trideca-1(9),2,4,6,10,12-hexaene] | < 10
7 | [2H]C([2H])([2H])c1nnn(C)c1-c1cnc2c3c(NCC(F)F)nccc3n([C@H](c3ccccc3)C3CCOCC3)c2c1 [Example 133, N-(2,2-Difluoroethyl)-5-[4-(^2H3)methyl-1-methyl-1H-1,2,3-triazol-5-yl]-8-[(S)-oxan-4-yl(phenyl)methyl]-3,8,12-triazatricyclo[7.4.0.0^2,^7]trideca-1(13),2(7),3,5,9,11-hexaen-13-amine] | < 1
8 | COc1ncc(S(=O)(=O)CC2(O)COC2)c2c1c1ncc(-c3c(C)nnn3C)cc1n2[C@H](c1ccccc1)C1CCOCC1 [Example 106, 3-({[5-(Dimethyl-1H-1,2,3-triazol-5-yl)-13-methoxy-8-[(S)-oxan-4-yl(phenyl)methyl]-3,8,12-triazatricyclo[7.4.0.0^2,^7]trideca-1(13),2(7),3,5,9,11-hexaen-10-yl]sulfonyl}methyl)oxetan-3-ol] | < 10
9 | Cc1nnn(C)c1-c1cnc2c3ccc(N4CCN(C5CCN(C)CC5)CC4)nc3n([C@H](c3ccccc3F)C3CCOCC3)c2c1 [Example 270, 5-(Dimethyl-1H-1,2,3-triazol-5-yl)-8-[(S)-(2-fluorophenyl)(oxan-4-yl)methyl]-11-[4-(1-methylpiperidin-4-yl)piperazin-1-yl]-3,8,10-triazatricyclo[7.4.0.0^2,^7]trideca-1(13),2(7),3,5,9,11-hexaene] | < 1
10 | [2H]C([2H])([2H])Oc1ncc(S(C)(=O)=O)c2c1c1ncc(-c3c(C)noc3C([2H])([2H])[2H])cc1n2[C@H](c1ccccc1)C1CCOCC1 [Example 54, 10-Methanesulfonyl-13-(^2H3)methoxy-5-[5-(^2H3)methyl-3-methyl-1,2-oxazol-4-yl]-8-[(S)-oxan-4-yl(phenyl)methyl]-3,8,12-triazatricyclo[7.4.0.0^2,^7]trideca-1(13),2(7),3,5,9,11-hexaene] | < 10
11 | [2H]C([2H])([2H])c1nnn(C)c1-c1cnc2c3ccc(-c4c(C([2H])([2H])[2H])nnn4C)nc3n(C(c3ccccc3)C3CCC(F)(F)CC3)c2c1 (stereo not shown) [Example 260, 8-[(4,4-Difluorocyclohexyl)(phenyl)methyl]-5,11-bis[4-(^2H3)methyl-1-methyl-H-1,2,3-triazol-5-yl]-3,8,10-triazatricyclo[7.4.0.0^2,^7]trideca-1(13),2(7),3,5,9,11-hexaene] | < 10
12 | Cc1nnn(C)c1-c1cnc2c3ccc(NC(=O)C(C)(C)C)nc3n([C@H](c3ccccc3)C3CCOCC3)c2c1 [Example 207, N-[5-(Dimethyl-1H-1,2,3-triazol-5-yl)-8-[(S)-oxan-4-yl(phenyl)methyl]-3,8,10-triazatricyclo[7.4.0.0^2,^7]trideca-1(9),2(7),3,5,10,12-hexaen-11-yl]-2,2-dimethylpropanamide] | < 10
13 | CC(=O)c1cc2c(cn1)c1ncc(-c3c(C)noc3C)cc1n2[C@H](c1ccc(F)cc1)C1CCOCC1 [Example 330, 1-[5-(Dimethyl-1,2-oxazol-4-yl)-8-[(S)-(4-fluorophenyl)(oxan-4-yl)methyl]-3,8,12-triazatricyclo[7.4.0.0^2,^7]trideca-1(9),2(7),3,5,10,12-hexaen-11-yl]ethan-1-one] | < 10
14 | [2H]C([2H])([2H])c1nnn(C)c1-c1cnc2c3cnc(Cl)cc3n([C@H](c3ccccc3F)C3CCOCC3)c2c1 [Example 315] | < 10
15 | [2H]C([2H])([2H])c1nnn(C)c1-c1cnc2c3ccc(NC)nc3n([C@H](c3ccccc3F)C3CCOCC3)c2c1 [Example 239, 8-[(S)-(2-Fluorophenyl)(oxan-4-yl)methyl]-N-methyl-5-[4-(^2H3)methyl-1-methyl-1H-1,2,3-triazol-5-yl]-3,8,10-triazatricyclo[7.4.0.0^2,^7]trideca-1(13),2(7),3,5,9,11-hexaen-11-amine] | < 10
16 | [2H]C([2H])([2H])c1nnn(C)c1-c1cnc2c3ccc(C4=CCSCC4)nc3n([C@H](c3ccccc3)C3CCOCC3)c2c1 [Example 203, 11-(3,6-Dihydro-2H-thiopyran-4-yl)-5-[4-(^2H3)methyl-1-methyl-1H-1,2,3-triazol-5-yl]-8-[(S)-oxan-4-yl(phenyl)methyl]-3,8,10-triazatricyclo[7.4.0.0^2,^7]trideca-1(9),2(7),3,5,10,12-hexaene] | < 10
17 | COc1nnn(C)c1-c1cnc2c3ccc(-c4c(OC)nnn4C)nc3n([C@H](c3ccccc3F)C3CCOCC3)c2c1 [Example 253, 8-[(S)-(2-Fluorophenyl)(oxan-4-yl)methyl]-5,11-bis(4-methoxy-1-methyl-1H-1,2,3-triazol-5-yl)-3,8,10-triazatricyclo[7.4.0.0^2,^7]trideca-1(13),2(7),3,5,9,11-hexaene] | < 10
18 | COc1ccc(CNc2ccc3c4ncc(-c5c(C)nnn5C)cc4n([C@H](c4ccccc4)C4CCOCC4)c3n2)c(OC)c1 [Example 187, N-[(2,4-Dimethoxyphenyl)methyl]-5-(dimethyl-1H-1,2,3-triazol-5-yl)-8-[(S)-oxan-4-yl(phenyl)methyl]-3,8,10-triazatricyclo[7.4.0.0^2,^7]trideca-1(9),2(7),3,5,10,12-hexaen-11-amine] | < 10
19 | Cc1nnn(C)c1-c1cnc2c3c(Cl)ncc(Cl)c3n([C@H](c3ccccc3)C3CCOCC3)c2c1 [Example 36, 10,13-Dichloro-5-(dimethyl-1H-1,2,3-triazol-5-yl)-8-[(S)-oxan-4-yl(phenyl)methyl]-3,8,12-triazatricyclo[7.4.0.0^2,^7]trideca-1(13),2(7),3,5,9,11-hexaene] | < 10
20 | Cc1nnn(C)c1-c1cnc2c3c(=O)[nH]c(Cl)cc3n(C(c3ncccc3F)C3CCOCC3)c2c1 (stereo not shown) [Example 307, 11-Chloro-8-[(3-fluoropyridin-2-yl)(oxan-4-yl)methyl]-5-[4-(^2H3)methyl-1-methyl-1H-1,2,3-triazol-5-yl]-3,8,12-triazatricyclo[7.4.0.0^2,^7]trideca-1(9),2(7),3,5,10-pentaen-13-one] | < 10
21 | CC(=O)c1ccc(-c2ccc3c4ncc(-c5c(C)nnn5C)cc4n([C@H](c4ccccc4)C4CCOCC4)c3n2)s1 [Example 162, 1-{5-[5-(Dimethyl-1H-1,2,3-triazol-5-yl)-8-[(S)-oxan-4-yl(phenyl)methyl]-3,8,10-triazatricyclo[7.4.0.0^2,^7]trideca-1(9),2(7),3,5,10,12-hexaen-11-yl]thiophen-2-yl}ethan-1-one] | < 10
22 | [2H]C([2H])([2H])c1nnn(C)c1-c1cnc2c3c(OC)nc(N(C)CCNC)cc3n([C@H](c3ncccc3F)C3CCOCC3)c2c1 [Example 313, 8-[(S)-(3-Fluoropyridin-2-yl)(oxan-4-yl)methyl]-13-methoxy-N-methyl-5-[4-(^2H3)methyl-1-methyl-1H-1,2,3-triazol-5-yl]-N-[2-(methylamino)ethyl]-3,8,12-triazatricyclo[7.4.0.0^2,^7]trideca-1(9),2(7),3,5,10,12-hexaen-11-amine] | < 1500
23 | [2H]C([2H])([2H])c1nnn(C)c1-c1cnc2c3c(NCC(F)(F)F)cncc3n(C(c3ncccc3F)C3CCOCC3)c2c1 (stereo not shown) [Example 303, 8-[(3-Fluoropyridin-2-yl)(oxan-4-yl)methyl]-5-[4-(^2H3)methyl-1-methyl-1H-1,2,3-triazol-5-yl]-N-(2,2,2-trifluoroethyl)-3,8,11-triazatricyclo[7.4.0.0^2,^7]trideca-1(9),2(7),3,5,10,12-hexaen-13-amine] | < 10
24 | CSc1nccc2c3ncc(-c4c(C)nnn4C)cc3n([C@H](c3ccccc3F)C3CCOCC3)c12 [Example 31, 5-(Dimethyl-1H-1,2,3-triazol-5-yl)-8-[(S)-(2-fluorophenyl)(oxan-4-yl)methyl]-10-(methylsulfanyl)-3,8,11-triazatricyclo[7.4.0.0^2,^7]trideca-1(13),2(7),3,5,9,11-hexaene] | < 10
25 | Cc1nnn(C)c1-c1cnc2c3ccnc(OCCN(C)C)c3n([C@H](c3ccccc3)C3CCOCC3)c2c1 [Example 10, (2-{[5-(Dimethyl-1H-1,2,3-triazol-5-yl)-8-[(S)-oxan-4-yl(phenyl)methyl]-3,8,11-triazatricyclo[7.4.0.0^2,^7]trideca-1(13),2(7),3,5,9,11-hexaen-10-yl]oxy}ethyl)dimethylamine] | < 10
